Results reported in patent US20050142581A1, “Microrna as ligands and target molecules” (priority 2003, published 2005).
Oligonucleotides are written 5' to 3', each unit as a sugar letter and its base; * is a phosphorothioate linkage, no mark a phosphodiester; rarer units and linkages stand in square brackets, end groups in braces. Plain capitals give the bases only. e = 2'-O-(2-methoxyethyl) (MOE); [5mC] = 5-methylcytosine; d = 2'-deoxy (DNA)

test system: human CD40 mRNA; assay: Inhibition of CD40 mRNA levels by oligonucleotides (real-time RT-PCR); format: cell-based; design: concentration or dose not given beside the values; conditions: 2'-MOE gapmers, 18 nucleotides, phosphorothioate throughout; averaged from three experiments
How it was run: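 Cells at ~80% confluency were transfected with oligonucleotide at 150 nM final using Lipofectin 3.75 μg/ml for 4 h and harvested 16 h after treatment. Poly(A)+ mRNA was taken for TaqMan real-time RT-PCR of CD40, and percent inhibition was derived from a standard curve of untreated control mRNA.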

First: 19263 (eT*e[5mC]*eG*eA*dA*dA*dG*dC*dA*dG*dA*dT*dG*dA*e[5mC]*eA*e[5mC]*eA; antisense) [compound 19263]
Second: 19267 (e[5mC]*eA*eG*eG*dT*dC*dT*dT*dT*dG*dG*dT*dC*dT*e[5mC]*eA*e[5mC]*eA; antisense) [compound 19267]
The “% Inhibition (Inhibition of CD40 mRNA Levels by Chimeric Phosphorothioate Oligonucleotides)” value (“% Inhibition” below) of the first is lower: 59.28% for the first, 63.95% for the second.

First: 19268 (e[5mC]*eT*eG*eT*dT*dG*dC*dA*dC*dA*dA*dC*dC*dA*eG*eG*eT*e[5mC]; antisense) [compound 19268]
Second: 19233 (antisense eA*eT*eT*e[5mC]*dC*dG*dT*dT*dT*dC*dA*dG*dT*dG*eA*eA*e[5mC]*eT) [compound 19233]
The “% Inhibition” value of the first is higher: 82.32% for the first, 56.03% for the second.

Going from “19274 (e[5mC]*eA*e[5mC]*e[5mC]*dA*dC*dC*dA*dG*dG*dG*dC*dT*dC*eT*e[5mC]*eA*eG; antisense) [compound 19274]” to “19244 (antisense eT*eG*eG*eT*dG*dT*dC*dT*dG*dT*dT*dT*dC*dT*eG*eA*eG*eG) [compound 19244]”, the “% Inhibition” value rises from 23.08% to 42.83%.

First: 19240 (antisense e[5mC]*eT*eA*eG*dG*dT*dT*dG*dG*dG*dG*dT*dC*dG*e[5mC]*eA*eG*eT) [compound 19240]
Second: 19285 (eT*eG*eG*eA*dG*dC*dA*dG*dC*dA*dG*dT*dG*dT*eT*eG*eG*eA; antisense) [compound 19285]
The “% Inhibition” value of the first is higher: 36.32% for the first, 15.17% for the second.

Compared with “19223 (antisense eG*e[5mC]*eA*eG*dT*dG*dG*dG*dT*dG*dG*dT*dT*dC*eT*eG*eG*eA) [compound 19223]”, “19276 (eG*eA*eG*eG*dA*dT*dG*dG*dC*dA*dA*dA*dC*dA*eG*eG*eA*eT; antisense) [compound 19276]” is lower in “% Inhibition” value: 73.70% for the first, 49.14% for the second.

Compared with “19280 (eG*eG*eG*eT*dT*dC*dC*dT*dG*dC*dT*dT*dG*dG*eG*eG*eT*eG; antisense) [compound 19280]”, “19248 (antisense eT*eA*e[5mC]*eA*dG*dT*dG*dC*dC*dA*dG*dC*dC*dT*eT*e[5mC]*eT*eT) [compound 19248]” is higher in “% Inhibition” value: 13.95% for the first, 46.82% for the second.

same assay, conditions: oligodeoxynucleotides with phosphorothioate backbones throughout; averages from three experiments

“18649 (DNA dC*dT*dG*dG*dT*dG*dG*dC*dA*dG*dT*dG*dT*dG*dT*dC*dT*dC; antisense) [compound 18649]” and “18694 (DNA dG*dA*dT*dC*dG*dT*dC*dG*dG*dG*dA*dA*dA*dA*dT*dT*dG*dA; antisense) [compound 18694]” are the same in “% INHIB. (Inhibition of CD40 mRNA Levels by Phosphorothioate Oligodeoxynucleotides)” value: 0.00% for the first, 0.00% for the second.

Going from “18706 (DNA dA*dC*dT*dG*dA*dC*dT*dG*dG*dG*dC*dA*dT*dA*dG*dC*dT*dC; antisense) [compound 18706]” to “18629 (DNA dG*dG*dT*dC*dA*dG*dC*dA*dA*dG*dC*dA*dG*dC*dC*dC*dC*dA; antisense) [compound 18629]”, the “% INHIB. (Inhibition of CD40 mRNA Levels by Phosphorothioate Oligodeoxynucleotides)” value rises from 0.00% to 29.96%.

First: 18635 (DNA dG*dC*dA*dG*dT*dG*dG*dG*dT*dG*dG*dT*dT*dC*dT*dG*dG*dA; antisense) [compound 18635]
Second: 18679 (DNA dC*dA*dG*dG*dT*dC*dT*dT*dT*dG*dG*dT*dC*dT*dC*dA*dC*dA; antisense) [compound 18679]
The “% INHIB. (Inhibition of CD40 mRNA Levels by Phosphorothioate Oligodeoxynucleotides)” value of the first is lower: 0.00% for the first, 6.98% for the second.

First: 18650 (DNA dT*dG*dG*dG*dG*dT*dC*dG*dC*dA*dG*dT*dA*dT*dT*dT*dG*dT; antisense) [compound 18650]
Second: 18701 (DNA dC*dT*dC*dT*dT*dT*dG*dC*dC*dA*dT*dC*dC*dT*dC*dC*dT*dG; antisense) [compound 18701]
The “% INHIB. (Inhibition of CD40 mRNA Levels by Phosphorothioate Oligodeoxynucleotides)” value of the first is lower: 0.00% for the first, 4.38% for the second.
